Laboratory results: PMC12598832, “Synthesis and Anticancer Potential of New Benzimidazole Theranostic” (ChemistryOpen, 2025)
Several values for one entry are separate records, joined by “and”; a condition that tells them apart may be missing. Equal entries are not always repeated. Structures can show the parent of a compound that is named as a salt. Where two headings read alike, the source gives them in different places.

Tests used:
[1] = molecular target: T1, SIRT2 human recombinant (Homo sapiens, UniProt Q8IXJ6); experiment: SIRT2 Direct Fluorescent Screening Assay Kit (Cayman); format: biochemical; details: for IC50: five concentrations 1-50 μM
T1 construct: purchased Cayman Chemicals, Ann Arbor 700,280
T1 sequence (Q8IXJ6 1-389): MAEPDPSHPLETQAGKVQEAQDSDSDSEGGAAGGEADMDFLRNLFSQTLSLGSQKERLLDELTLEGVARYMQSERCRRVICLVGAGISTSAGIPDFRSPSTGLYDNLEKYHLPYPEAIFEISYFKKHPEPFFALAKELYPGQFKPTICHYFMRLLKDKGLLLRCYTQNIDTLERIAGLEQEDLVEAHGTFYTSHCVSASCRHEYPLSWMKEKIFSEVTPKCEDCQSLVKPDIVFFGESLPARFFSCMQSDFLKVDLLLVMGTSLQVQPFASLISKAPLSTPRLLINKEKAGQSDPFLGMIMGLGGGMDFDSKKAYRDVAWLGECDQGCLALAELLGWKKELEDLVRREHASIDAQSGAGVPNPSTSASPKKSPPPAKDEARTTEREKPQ
Procedure: The SIRT2 inhibitory activity of the compounds was evaluated using the SIRT2 Direct Fluorescent Screening Assay Kit (Cayman Chemicals, Ann Arbor, C/N: 700,280) according to the manufacturer's instructions. The SIRT2 peptide substrate comprised amino acids 317–320 of human p53 conjugated to […] (Gln‐Pro‐Lys‐Lys(ε‐acetyl)‐AMC). […] Subsequently, 50 μl of developer solution (6 μg μl^−1 SIRT2 developer, 2 mM nicotinamide) was added. The mixture was incubated for a further 30 min at room temperature. […] The fluorescence was measured with excitation and emission wavelengths of 355 and 460 nm, respectively, using the Tecan Infinite 200 Pro. The percentage inhibition was determined as the ratio of […] under each experimental condition to that of the control.

[2] = system: HEK293 cells; experiment: MTT cell proliferation assay, HEK293 (noncancerous); format: cell-based, human; details: read-out: HEK293 IC50 [μM] ± SEM
From the text: (§1) The H103 and H314 OSCC cell lines were obtained from the European Collection of Cell Cultures (ECACC). The HCT116 and HEK293 cell lines were obtained from the American Type Culture Collection (Rockville, MD).
(§2) All cell lines were maintained in high‐glucose Dulbecco's Modified Eagle Media (DMEM) (Sigma‐Aldrich, Buchs, Switzerland). The culture media was supplemented with 10% fetal bovine serum (FBS) (TICO, Amsterdam, Netherlands) and 1% penicillin‐streptomycin. Prior to the cell‐based assay, cell lines were incubated at 37 °C in a 5% CO2 humidified atmosphere
(§3) Cells were seeded in 96‐well plates at a density of 5 × 10^3 per well. After 24 h of seeding, the cells were treated with 50 μM of the compounds of interest (final concentration 0.25% DMSO) and allowed to adhere for 72 h at 37 °C in a 5% CO2 humidified atmosphere. The 3‐(4,5‐dimethylthiazol‐2‐yl)‐2,5‐diphenyltetrazolium bromide (MTT) assay was conducted to examine the cell cytotoxicity profiles of the synthesized compounds. Briefly, the treatment media was discarded, and 0.5 mg mL^−1 of MTT was added to each well. The plates were incubated for another 4 h at 37 °C in a 5% CO2 humidified atmosphere. Following the incubation, the medium‐MTT solution was removed, and 100 μL of DMSO was added to dissolve the formazan crystals. The absorbance was measured at 570 nm, with the reference wavelength at 620 nm, using the Tecan Infinite 200 Pro. The experiment was carried out in triplicate.

[3] = system: H103 (oral squamous cell carcinoma, OSCC) cell line; experiment: MTT cell proliferation assay, H103; format: cell-based; details: for IC50: MTT, 72 h, read-out: H103 IC50 [μM] ± SEM; for H103 Selectivity Index (SI): versus HEK293
From the text: as §1, §2, §3

[4] = Fluorescence properties (molar extinction coefficient, quantum yield, Stokes shift); format: physicochemical
Procedure: A series of dilutions of V7 (dissolved in DMSO) was prepared. The absorbance of the solutions at 326 nm was recorded on the UviLine 9400 spectrophotometer using a quartz cuvette (10 × 10 mm). A calibration curve of absorbance against concentration was generated. The molar extinction coefficient was calculated from the gradient of the line of best fit, in accordance with Beer–Lambert's law.
A series of dilutions of V7 (dissolved in DMSO) was prepared. The fluorescence emission peak at each concentration was determined using the Tecan Infinite 200 Pro microplate reader (λex = 326 nm and λem = 492 nm). The […] peak was plotted against the fluorescence emission peak and compared to that of a quinine sulfate standard, which has a known quantum yield.
The quantum yield of V7 was subsequently calculated using the following equation Φ=ΦR(Grad/GradR)(n^2/nr2)
The quinine sulfate reference has a quantum yield of 54.6% when dissolved in 0.5 M H2SO4.^[ [26] ^] The refractive index of 0.5 M H2SO4 is 1.346, while the refractive index of DMSO is 1.479.^[ [27] ^]

[5] = system: HCT116 (colorectal carcinoma) cell line; experiment: MTT cell proliferation assay, HCT116; format: cell-based; details: for IC50: MTT, 72 h, read-out: HCT116 IC50 [μM] ± SEM; for HCT116 Selectivity Index (SI): versus HEK293
[6] = system: H314 (OSCC) cell line; experiment: MTT cell proliferation assay, H314; format: cell-based; details: for cytotoxic effect in preliminary screening, H314: 50 μM, versus control 0.25% DMSO, ANOVA/Tukey; for cytotoxic effect in preliminary screening, H314 / IC50: 72 h; for IC50: MTT, read-out: H314 IC50 [μM] ± SEM; for H314 Selectivity Index (SI): versus HEK293
From the text: as §1, §2
as §3, with “After 24 h of seeding, the cells were treated with 50 μM of the compounds of interest (final concentration 0.25% DMSO) and allowed to adhere for 72 h at 37 °C in a 5% CO2 humidified atmosphere.” left out

[7] = system: H103 (oral squamous cell carcinoma, OSCC) cell line; set-up: method as in PMID 32904142; details: previous study; cited from earlier work
[8] = set-up: method as in ref 26 = [26]; 26 W. H. Melhuish , J. Phys. Chem. 1961 , 65 , 229 .; details: in 0.5 M H2SO4; cited from earlier work
[9] = system: H103 cell line; set-up: method as in ref 28 Khoo et al.; details: 24 h treatment; ref 28 Khoo et al.; cited from earlier work
[10] = system: H314 cell line; set-up: method as in ref 28 Khoo et al.; details: 24 h treatment; ref 28 Khoo et al.; cited from earlier work
[11] = compound 50 μM, preliminary screening
[12] = compound 50 μM, preliminary screening, read-out: Percentage SIRT2 inhibition (%)
[13] = dose-response, 50 μM, read-out: % Inhibition of SIRT2

SMILES	Percentage SIRT2 inhibition (%) [1, 11]	inhibition at 50 µM [1, 12] [%]	IC50 ([2]; Homo sapiens, HEK293, 72 h) [µM]	H103 Selectivity Index (SI) [3]	IC50 ([5]; Homo sapiens, HCT-116) [µM]	HCT116 Selectivity Index (SI) [5]	IC50 [6] [µM]	H314 Selectivity Index (SI) [6]	also measured
CCOC(=O)c1ccc2[nH]c(-c3ccc(OC)c(O)c3)nc2c1 [Compound V4]	no SIRT2 inhibition	–	–	–	–	–	–	–	–
CCOC(=O)c1ccc2[nH]c(-c3ccc(OC)c(OC)c3)nc2c1 [Compound V8]	–	25.5 ± 12.9	–	–	–	–	–	–	–
CCOC(=O)c1ccc2[nH]c(-c3ccc(O)c(OC)c3)nc2c1 [Compound V3]	–	61.9 ± 12	–	–	–	–	–	–	–
CCOC(=O)c1ccc2[nH]c(-c3ccccc3O)nc2c1 [Compound V7]	complete inhibition of enzymatic activity	> 95	44.4 ± 3.03	3.81	13.3 ± 2.52	3.34	16.7 ± 1.13	2.66	inhibition at 1 µM ([1]; dose-response): 0.2 ± 5.8%; inhibition at 3 µM ([1]; dose-response): 32.8 ± 2.8%; inhibition at 10 µM ([1]; dose-response): 66.1 ± 7.1%; inhibition at 25 µM ([1]; dose-response): 81.3 ± 3.2%; inhibition at 50 µM [1, 13]: 100 ± 3%; IC50 [1]: 6.4 µM; IC50 ([3]; Homo sapiens, H103): 11.6 ± 1.04 µM; molar extinction coefficient (molar absorptivity ε) ([4]; in DMSO, absorbance at 326 nm): 34,477 M^−1 cm^−1 and 34 477 M^−1 cm^−1; quantum yield Φ ([4]; in DMSO, λex 326 nm, λem 492 nm, versus quinine sulfate): 26%; Stokes shift Δλ ([4]; λex 326 nm, λem 492 nm): 166 nm; cytotoxic effect in preliminary screening, H314 [6]: highly significant effects
CCOC(=O)c1ccc2[nH]c(-c3cccc(OC)c3)nc2c1 [Compound V5]	no SIRT2 inhibition	–	45.6 ± 2.18	2.00	11.2 ± 3.14	4.08	31.7 ± 1.27	1.44	IC50 ([3]; Homo sapiens, H103): 22.8 ± 3.84 µM; cytotoxic effect in preliminary screening, H314 [6]: highly significant effects
CCOC(=O)c1ccc2[nH]c(-c3ccc4c(c3)OCO4)nc2c1 [BZD9Q1, reference compound]	–	–	18.4 ± 2.95	3.15	11.5 ± 2.3	1.60	> 100	–	IC50 [7]: 5.83 µM
CCOC(=O)c1ccc2[nH]c(-c3ccc(O)cc3O)nc2c1 [Compound V2]	complete inhibition of enzymatic activity	> 95	–	–	–	–	–	–	inhibition at 1 µM ([1]; dose-response): 19.4 ± 2.4%; inhibition at 3 µM ([1]; dose-response): 29.5 ± 6.6%; inhibition at 10 µM ([1]; dose-response): 44.5 ± 0.2%; inhibition at 25 µM ([1]; dose-response): 59.8 ± 0.1%; inhibition at 50 µM [1, 13]: 77 ± 0.1%; IC50 [1]: 10.8 µM
CCOC(=O)c1ccc2[nH]c(-c3ccc(O)c(O)c3)nc2c1 [Compound V9]	–	39.3 ± 7.3	51.8 ± 5.65	–	16.6 ± 3.52	3.13	37.8 ± 1.81	1.37	IC50 ([3]; Homo sapiens, H103): > 50 µM; cytotoxic effect in preliminary screening, H314 [6]: highly significant effects
CCOC(=O)c1ccc2[nH]c(-c3cccc(O)c3)nc2c1 [Compound V1]	–	25.4 ± 11.8	–	–	–	–	–	–	–
C=C[C@H]1C[N@@]2CC[C@H]1C[C@H]2[C@H](O)c1ccnc2ccc(OC)cc12 [quinine sulfate]	–	–	–	–	–	–	–	–	quantum yield of reference [8]: 54.6%
CCOC(=O)c1ccc2[nH]c(-c3ccccc3OC)nc2c1 [Compound V6]	weakest inhibitory effect	11.8 ± 11.4	–	–	–	–	–	–	–
N.N.[Cl][Pt][Cl] [Cisplatin, reference compound]	–	–	–	1.91	–	0.43	15.1 ± 1.05	0.23	IC50 ([2]; 72 h): 3.54 ± 0.18 µM; IC50 [3]: 1.85 ± 0.42 µM; sensitivity in H103 relative to H314 ([3]; from IC50 values of Table 2): 8 fold; IC50 [9]: 15 µM; IC50 [10]: 200 µM; IC50 [5]: 8.24 ± 0.86 µM
